Experimental data reported in publication doi:10.1101/2021.05.17.444542v1, “Structure Activity Relationship of USP5 Allosteric Inhibitors” (biorxiv, 2021).

Target: T1, USP5 ZnF-UBD (USP5 171-290) (Homo sapiens, UniProt P45974)
T1 sequence (P45974 171-290): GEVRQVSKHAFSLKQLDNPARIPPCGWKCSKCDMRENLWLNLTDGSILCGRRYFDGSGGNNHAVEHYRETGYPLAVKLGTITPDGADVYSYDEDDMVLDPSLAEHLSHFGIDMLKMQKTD
Conditions: FITC-ubiquitin displacement, N=1; 100 µM; inhibitor

Row | Structure (SMILES) | % inhibition [%]
1 | O=C(O)CCC(=O)c1cccc(NS(=O)(=O)c2c[nH]c3ncccc23)c1 [S1] | 40
2 | Cc1ccc(C(=O)O)cc1S(=O)(=O)Nc1cccc(C(=O)CCC(=O)O)c1 [S2] | 36
3 | CC(CC(=O)c1cccc(-c2ccc3c(c2)CCCO3)c1)C(=O)O (stereo not drawn) [S3] | 31
4 | CN(c1ccc(S(C)(=O)=O)cc1)S(=O)(=O)c1ccc(C(=O)CCC(=O)O)cc1 [S4] | 61
5 | O=C(O)CCC(=O)c1cccc(NS(=O)(=O)c2c[nH]c(C(=O)N3CCCC3)c2)c1 [S5] | 50
6 | O=C(O)CCC(=O)c1cccc(NS(=O)(=O)c2cc(F)cc(C(=O)O)c2)c1 [S6] | 3
7 | CCCn1nc(C)c(-c2ccc(OC)c(C(=O)CCC(=O)O)c2)c1C [S7] | 32
8 | Cc1ccc(OC(C)CNS(=O)(=O)c2ccc(C(=O)CCC(=O)O)cc2)cc1 (stereo not drawn) [S8] | 37
9 | O=C(O)CCC(=O)c1cccc(NS(=O)(=O)c2ccc(Cl)c(C(=O)O)c2)c1 [S9] | 26
